In one experiment the test system is A549 cells. Description: Cultured cancer cell viability assay (cell titer glo, A549 CTG). The settings on record: Homo sapiens. The experiment is classed as cell-based. From the text:
Anti-tumor effects are monitored in cultured cancer cells after several days of compound treatment. The cell titer glo assay (Promega) measures the amount of ATP present as a proxy for cellular viability. Cellular counting is done using high-content microscopy followed by image analysis. A hanging drop 3D-culture system (3D Biomatrix) is used followed by cell titer glo to measure growth in a tumor-like environment.
The cellular assay provides information about the anti-neoplastic activity of the compounds of the invention. The compounds are tested against cultured cancer cells to determine whether or not the compounds of the invention are capable of intersecting with cancer cells to minimize or eliminate such cells. The assay involves establishing colonies of such cells and then treating them with the test compound under specified conditions and analysis regime to determine results.
(§1) Plate 25 μL of A549 cells in every well of 384-well plate using multidrop.
One (1) white plate for viability at 500 cells/well.
Serial dilute compounds with a 10 point 2-fold serial dilution in DMSO to make 250× stock compound solution
Dilute compounds 1:125 in cell culture media to make a 2× solution Add 25 μl of dilution compounds to cell plates in well duplicates
Put cells back in incubator (6 hr incubation for black plates, 72 hr incubation for white plates).
Thaw an aliquot of frozen cell titer glo (Promega G7572) at room temperature.
Add 45 mL of NaCl/PBS solution to 5 ml of cell titer glo (10×).
Remove white plates from incubator, leave at room temp for 30 minutes.
Add 25 μl of diluted cell titer glo to each well.
Shake plate for >1 minute.
Incubate plate for >5 minutes to stabilize luminescence. • Luminescence is stable for up to 3 hours.
Read luminescence on plate reader
The results are reported on the following Table I for Examples A-EE and the E1-E4 compounds as 50 percent Inhibitory concentration at candidate doses of less than 1 μM, less than 3 μM and less than 10 μM for both of the K48 antibody and the p53 (CTG) antibody assays

A further experiment deals with p97 (Homo sapiens, UniProt P55072). The experiment can be described thus: P97 ATPase biochemical assay (ADP Glo). The procedure: The ATPase assay is performed according the following protocol: Purified enzyme (20 nM p97), substrate (20 μM ATP) and a dose titration of compounds are mixed in buffer (50 mM TRIS pH 7.5, 20 mM MgCl2, 0.02% TX-100, 1 mM DTT, 0.2% (v/v) glycerol) and incubated at 37° C. for 15 minutes. The reaction is terminated and the level of product generated is measured using the ADP Glo Assay Kit (Promega, Madison Wis.). Plotting product generated versus compound concentration and using a four-parameter fit model generates an IC50 value for each compounds.
Chain of p97 (P55072 whole entry): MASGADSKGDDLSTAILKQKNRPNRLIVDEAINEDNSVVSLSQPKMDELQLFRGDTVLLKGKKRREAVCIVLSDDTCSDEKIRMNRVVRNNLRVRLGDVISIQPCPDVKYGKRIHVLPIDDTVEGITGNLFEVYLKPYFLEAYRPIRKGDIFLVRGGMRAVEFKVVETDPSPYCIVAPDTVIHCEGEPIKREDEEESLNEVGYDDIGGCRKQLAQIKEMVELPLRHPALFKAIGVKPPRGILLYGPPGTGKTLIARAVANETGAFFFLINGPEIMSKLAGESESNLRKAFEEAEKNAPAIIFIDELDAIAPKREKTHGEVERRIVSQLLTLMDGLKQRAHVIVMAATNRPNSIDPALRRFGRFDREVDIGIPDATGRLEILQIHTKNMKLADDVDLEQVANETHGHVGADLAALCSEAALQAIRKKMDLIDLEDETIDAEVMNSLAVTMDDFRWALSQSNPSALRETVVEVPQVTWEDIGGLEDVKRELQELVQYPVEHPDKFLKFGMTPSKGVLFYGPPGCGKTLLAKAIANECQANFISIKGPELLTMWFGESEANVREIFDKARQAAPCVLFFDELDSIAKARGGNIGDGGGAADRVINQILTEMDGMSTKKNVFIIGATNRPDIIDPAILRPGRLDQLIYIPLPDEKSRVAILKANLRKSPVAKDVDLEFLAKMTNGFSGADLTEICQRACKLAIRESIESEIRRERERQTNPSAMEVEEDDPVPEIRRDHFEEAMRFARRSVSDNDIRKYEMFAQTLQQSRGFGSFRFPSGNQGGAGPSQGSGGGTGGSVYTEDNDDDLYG
The p97 assay is an initial screening assay used to determine inhibitory activity of the monocyclic pyrimidine compounds of the invention against the p97 complex. As discussed above, inhibition of activity of the p97 proteosome complex can enable apoptosis and cause elimination of neoplastic cells (cancer cells). The method follows that of Christianson in Nat. Cell Biol., (2011) 14:93.
Assay Buffer is a mixture of 50 mM TRIS pH 7.5, 20 mM MgCl2, 0.02% TX-100, 1 mM DTT and 0.2% (v/v) Glycerol. The well plate is Platetype: Corning 3674, 384w plate. The identification kit is an ADP glo kit (Promega): stop buffer, detection reagent.
Serial dilute compound in DMSO in a 1:3.33-fold 10 point serial dilution.
0.5 μL compound serial diluted in DMSO (Final Conc. 10%)
2 μL ATP (Final Conc.=20 uM, diluted in assay buffer)
2.5 μL p97 (Final Conc.=20 nM, diluted in assay buffer)
Incubate at 37 degC for 15 min.
Add 5 μL of stop buffer, incubate at RT for 40 min.
Add 10 μL of detection reagent, incubate at RT for 30 min.
Read luminescence on Envision plate reader. • Upon obtaining the data from the luminescence reading, the data may be analyzed as follows:
Normalize luminescence data using no enzyme (full inhibition) and no compound (no inhibition) controls. Plot normalized luminescence data against log-transformed concentration values and fit to a sigmoidal curve to determine IC50 values (done in Collaborative Drug Discovery software).
The results are reported on the following Table for Examples A-EE and the E1-E4 compounds as 50 percent Inhibitory concentration at candidate doses of less than 30 nM, less than 100 nM, less than 300 nM and less than 1000 nM for the p97 inhibition assay.
On the technique in general: In ADP-Glo the light output rises with the ADP produced.

Experiment [1] has as its system K48 poly-Ubiquitin accumulation in A549 cells. Description: A549 K48 poly-ubiquitin accumulation immunofluorescence assay. Format: cell-based. The settings on record: Homo sapiens. The procedure: Image-analysis is used to generate quantitative data from these assays that can be fit to a four-parameter sigmoid curve to derive IC50 values. Substrates of the ubiquitin-proteasome system, such as p53, are monitored after tumor cell lines are incubated with compounds for several hours. Accumulation of these proteins indicates an inhibition of proteasome-mediated degradation. Accumulation of lysine-48 chain linkage of poly-ubiquitin is also monitored by immunofluorescence as an indicator of ubiquitin-proteasome system inhibition. Both LC3 and SQSTM1 are mediators of autophagy. The localization and amounts of these proteins are monitored by immunofluorescence and report on the activity and inhibition of autophagy in response to p97 inhibition.
as §1
Two (2) black plates for IF at 2500 cells/well
Serial dilute compounds with a 10 point 2-fold serial dilution in DMSO to make 250× stock compound solution Dilute compounds 1:125 in cell culture media to make a 2× solution Add 25 μl of dilution compounds to cell plates in well duplicates Put cells back in incubator (6 hr incubation for black plates, 72 hr incubation for white plates).
Incubate cells in black plates with compound at 37 degC for 6 hrs. add 15 μL of 16% Paraformaldehyde (PFA) directly into media of each well, incubate at room temp for 5 min, flick plate and wash in 50 μL of PBS block in 50 μL of Blocking Buffer for 30 minutes (can go up to several hours) Blocking buffer: 1×PBS, 1% BSA, 0.3% Triton-X100, Hoechst (1:10,000) incubate in 25 μL of primary antibody in blocking buffer at 4 degC over night […]
Secondary Antibodies: • AlexaFluor488 Goat anti-Rabbit 1:2,000 (Life Tech A11008) • AlexaFluor555 Goat anti-Mouse 1:2,000 (Life Tech A21422) incubate in 25 μl of secondary antibody (1:2,000) in blocking buffer for 1-2 hrs at room temp (alexafluor488-anti-Rabbit/alexafluor555-anti-Mouse) Image plates in high content microscope with 405 nm, 488 nm and 555 nm filters Nuclear counts and cellular intensities of each markers are measured using Hoechst as a nuclear marker with an automated image analysis protocol using Matlab software (Math Works) The results are reported on the following Table I for Examples A-EE and the E1-E4 compounds as 50 percent Inhibitory concentration at candidate doses of less than 1 μM, less than 3 μM and less than 10 μM for both of the K48 antibody and the p53 (CTG) antibody assays

Where [2] appears, read: A549, Table II, preliminary assays, read-out: Cell Titre Glow Assay IC50.
Where [3] appears, read: A549 cells, 72 hr incubation, cell titer glo, read-out: A549 CTG IC50.
Where [4] appears, read: 20 nM p97, 20 uM ATP, 37 degC 15 min.
Setting [5] is: A549, Table II, preliminary assays, read-out: K48 poly-Ubiquitin Accumulation.
Setting [6] is: A549 cells, 6 hr incubation, K48-Ub antibody, read-out: A549 K48 IC50.

Here are results for 16 compounds from patent publication US9868722B2, “Monocyclic pyrimidine/pyridine compounds as inhibitors of P97 complex” (Cleave Biosciences, Inc., priority 2013, dated 2018).

Structures can show the parent of a compound that is named as a salt. Where two headings read alike, the source gives them in different places.

For the compound `Cc1cc(NCc2ccccc2)nc(-n2c(C)cc3c(C(N)=O)cccc32)n1` [Example 1, 1-[4-(benzylamino)-6-methylpyrimidin-2-yl]-2-methyl-1H-indole-4-carboxamide], the IC50 with A549 cells (setting [2]) was 2010 nM; in the experiment on A549 cells (setting [3]), less than 3000 nM; on p97 (setting [4]) it was less than 100 nM; against p97 (Table II, preliminary assays), 42 nM; in experiment [1] (setting [5]), 3000 nM; in experiment [1] (setting [6]) it was less than 10000 nM.

With `Cc1cnc(-n2c(C)cc3c(C(N)=O)cccc32)nc1NCc1ccccc1` [Example 2, 1-[4-(benzylamino)-5-methylpyrimidin-2-yl]-2-methyl-1H-indole-4-carboxamide], the IC50 in the experiment on A549 cells (setting [2]) was 970 nM; in the experiment on A549 cells (setting [3]) it was less than 1000 nM; at p97 (setting [4]), less than 30 nM; at p97 (Table II, preliminary assays) it was 22 nM; in experiment [1] (setting [5]) it was 1600 nM; in experiment [1] (setting [6]), less than 3000 nM.

Turning to `COc1cnc(-n2c(C)cc3c(C(N)=O)cccc32)nc1NCc1ccccc1` [Example 3, 1-[4-(benzylamino)-5-methoxypyrimidin-2-yl]-2-methyl-1H-indole-4-carboxamide], the IC50 in the experiment with A549 cells (setting [2]) was 467 nM; with A549 cells (setting [3]) it was less than 1000 nM; at p97 (setting [4]) it was less than 30 nM; on p97 (Table II, preliminary assays), 7 nM; in experiment [1] (setting [5]), 890 nM; in experiment [1] (setting [6]) it was less than 1000 nM.

Take `Cc1cc2c(C(N)=O)cccc2n1-c1ncc(C(F)(F)F)c(NCc2ccccc2)n1` [Example 4, 1-[4-(benzylamino)-5-(trifluoromethyl)pyrimidin-2-yl]-2-methyl-1H-indole-4-carboxamide]: the IC50 with A549 cells (setting [3]) is less than 3000 nM; against p97 (setting [4]) it was less than 30 nM; in experiment [1] (setting [6]), less than 3000 nM.

For the compound `Cc1cc2c(C(N)=O)cccc2n1-c1ncc(Cl)c(NCc2ccccc2)n1` [Example 5, 1-[4-(benzylamino)-5-chloropyrimidin-2-yl]-2-methyl-1H-indole-4-carboxamide], the IC50 with A549 cells (setting [2]) is 1790 nM; in the experiment on A549 cells (setting [3]), less than 3000 nM; at p97 (setting [4]) it was less than 30 nM; against p97 (Table II, preliminary assays), 12 nM; in experiment [1] (setting [5]), 1400 nM; in experiment [1] (setting [6]), less than 3000 nM.

For the compound `CCc1cnc(-n2c(C)cc3c(C(N)=O)cccc32)nc1NCc1ccccc1` [Example 6, 1-[4-(benzylamino)-5-ethylpyrimidin-2-yl]-2-methyl-1H-indole-4-carboxamide], the figures for the IC50 (in the experiment with A549 cells (setting [3]); against p97 (setting [4]); in experiment [1] (setting [6])) were less than 1000 nM, less than 30 nM and less than 1000 nM, respectively.

As to `COc1c(C)nc(-n2c(C)cc3c(C(N)=O)cccc32)nc1NCc1ccccc1` [Example 7, 1-[4-(benzylamino)-5-methoxy-6-methylpyrimidin-2-yl]-2-methyl-1H-indole-4-carboxamide], the results for the IC50 (in the experiment on A549 cells (setting [3]); against p97 (setting [4]); in experiment [1] (setting [6])) were less than 3000 nM, less than 30 nM and less than 3000 nM, respectively.

As to `Cc1nc(-n2c(C)cc3c(C(N)=O)cccc32)nc(NCc2ccccc2)c1C(C)C` [Example 8, 1-[4-(benzylamino)-6-methyl-5-(propan-2-yl)pyrimidin-2-yl]-2-methyl-1H-indole-4-carboxamide], the IC50 in the experiment on A549 cells (setting [3]) was less than 3000 nM; on p97 (setting [4]), less than 30 nM; in experiment [1] (setting [6]), less than 1000 nM.

For the compound `Cc1cc2c(C(N)=O)cccc2n1-c1ncc(N)c(NCc2ccccc2)n1` [Example 17, 1-[5-amino-4-(benzylamino)pyrimidin-2-yl]-2-methyl-1H-indole-4-carboxamide], the IC50 on p97 (setting [4]) is less than 1000 nM.

As to `Cc1cc2c(C(N)=O)cccc2n1-c1ncc(CN(C)C)c(NCc2ccccc2)n1` [Example 21, 1-[4-(benzylamino)-5-[(dimethylamino)methyl]pyrimidin-2-yl]-2-methyl-1H-indole-4-carboxamide], the IC50 against p97 (setting [4]) was less than 1000 nM.

As to `Cc1cc2c(C(N)=O)cccc2n1-c1ncc(CN)c(NCc2ccccc2)n1` [Example 22, 1-[5-(aminomethyl)-4-(benzylamino)pyrimidin-2-yl]-2-methyl-1H-indole-4-carboxamide], on p97 (setting [4]), the IC50 is less than 300 nM.

In the case of `CNCc1cnc(-n2c(C)cc3c(C(N)=O)cccc32)nc1NCc1ccccc1` [Example 23, 1-[4-(benzylamino)-5-[(methylaminoc)methyl]pyrimidin-2-yl]-2-methyl-1H-indole-4-carboxamide], the IC50 at p97 (setting [4]) was less than 1000 nM.

In turn, `Cc1cc2c(C(N)=O)cccc2n1-c1ncc(OCCN)c(NCc2ccccc2)n1` [Example 25, 1-[5-(2-aminoethoxy)-4-(benzylamino)pyrimidin-2-yl]-2-methyl-1H-indole-4-carboxamide] returned an IC50 against p97 (setting [4]) of less than 1000 nM.

As for `Cc1cnc(-n2c(CN)cc3c(C(N)=O)cccc32)nc1NCc1ccccc1` [Example 31, 2-(aminomethyl)-1-[4-(benzylamino)-5-methylpyrimidin-2-yl]-1H-indole-4-carboxamide Hydrochloride], the IC50 against p97 (setting [4]) is less than 1000 nM.

In turn, `CCc1cnc(-n2c(CN)cc3c(C(N)=O)cccc32)nc1NCc1ccccc1` [Example 32, 2-(aminomethyl)-1-[4-(benzylamino)-5-ethylpyrimidin-2-yl]-1H-indole-4-carboxamide] returned an IC50 against p97 (setting [4]) of less than 300 nM.

In turn, `Cc1cc2c(CN)cccc2n1-c1ncc(C(C)C)c(NCc2ccccc2)n1` [Example 39, 2-[4-(aminomethyl)-2-methyl-1H-indol-1-yl]-N-benzyl-5-(propan-2-yl)pyrimidin-4-amine] displayed an IC50 against p97 (setting [4]) of less than 1000 nM.
